Laboratory results taken from patent US20170042104A1, “SUGARCANE PROCESS” (E I DU PONT DE NEMOURS AND COMPANY, priority 2014, published 2017).
Each block holds one molecule with its values, some of them ahead of it.

Experiments:
[1] = Accelerated degradation of cellulosic composites buried in soil; assay type: physicochemical; details: buried in soil 1 month, 30° C., approximately 50% humidity; confidence interval 95%
Procedure: Cellulosic pulp was mixed with various materials to study the influence of the materials in the degradation of them in soil. To evaluate the different materials developed with cellulose, an accelerated degradation protocol was developed wherein samples with different compositions were buried in a recipient containing soil, and kept for 1 month in an incubator at 30° C. and approximately 50% humidity, representing field conditions. The cellulose content was measured using thermogravimetric analyses before and after the test to evaluate degradation, indicating cellulose degradation in field.
Different materials were tested, including a residue from the pulp and paper industry containing cellulosic fibers of long and short nature; inorganic fillers, mainly TiO2 and pigments. The final structure contained more than 90% of this cellulose mixture. To this mixture was added polyvinyl alcohol, up to 5% in weight, ionomer of ethylene acid copolymer, up to 5% in weight, used in the packaging industry, cationic starch, up to 5% in weight, more likely 1% to accelerate degradation, while promoting the adherence of the adjacent fibers of cellulose, urea to accelerate the degradation and nutrition of plants up to 10% in weight, more likely 5%, and AKD (alkyl ketene dimer) in a starch solution to serve as moisture barrier by changing the hydrophobicity of cellulose, more likely between 1-10 ppm.

sugarcane = assay: Plantlet formation with Na silicate added to MS media; field test; assay type: in vivo; details: 5 mM added to MS media in weeks 3 and 4; observational evidence
Procedure: Plantlet formation (production of plants with shoots and roots), also called regeneration, was initiated by transferring the RPT to media without hormones. RPT fragments were made using scalpels, chopping tools, or by large scale dicing of material by mechanical means. Fragment size was determined by end usage: RPT fragments for growth in arrays were approximately 1-10 mm cubes, for growth in temporary immersion chambers somewhat larger fragments 5-20 mm were used, or the RPT was left unfragmented. The media used was MS+3% sucrose. Plantlet formation occurred at 26° C. in 60 uE/m2/sec of PAR light (16 hours on and 8 hours off), and if temporary immersion was used media was cycled over the fragments for 1 minute every 2 hours. Media was replaced weekly and was supplemented with 100 ppm carbenicillin, 0.2% PPM (Plant Preservative Mixture™, Plant Cell Technology Inc. Washington, D.C.), and/or 100 ppm cefotaxime as needed. Supplemental carbon dioxide (1500 ppm) was used in some growth cycles, but is not essential. After 3-4 weeks the MS concentration was decreased to ½ strength to encourage rooting, although not required.
The addition of 5 mM Na silicate to the MS media was made in weeks 3 and 4. […] Silicates accumulated in sugarcane tissues conferring anti-predatory, anti-fungal properties. […]

sugarcane plantlet = assay: Storage of plantlets in Starcla tube seed structures after chemical treatment during regeneration; field survival; assay type: in vivo; details: for Survival: survival after 5 weeks of growth in field
Text: The effect of time, temperature, and light on storage of plantlets was studied, in combination with the effect of chemical treatment. Seed structures consisted of 4″ Starcla™ tubes. Tubes were extruded from a resin, such as a blend of polybutylene succinate, polylactic acid, and starch, using a 1½″ Davis Standard-extruder. Tubing was made with ⅝″ I.D. and cut into 4″ length tubes. The seeds were assembled by heating the bottom of the tube and pressing into a crescent shape where there is 2-3 millimeter gap between both sides. Two grams of potting media were added to each tube. One sugarcane plantlet was placed inside the tube structure ensuring the roots were placed in the soil and the shoot remained in the airspace. Two milliliters of water were added to the structure and then the top was prepared by heating and forming a crescent shape with a 2-3 millimeter gap between both sides.
Two types of chemical treatments were used during regeneration. The first treatment was paclobutrazol (paclo), which was introduced into the media for weeks 3 and 4 of plantlet formation. The solution contained 2% sucrose, ½ strength MS, 100 ppm cefotaxime, and 0.75 mg/L paclobutrazol. The second treatment was abscisic acid (ABA) which was introduced the day before the plantlets were removed from regeneration. The ABA treatment solution contained 1 mg/L ABA, 10 g/L sucrose, and MS solution.
The tubes were stored in partially closed zip bags with 25 tubes per unit. After storage the seeds were planted. No irrigation was used during the time the plantlets were growing in the field. The survival rates of the plantlets were measured after 5 weeks of growth.

[2] = system: regenerable plant tissue (RPT); assay: Culturing of regenerable plant tissue in media with BAP; assay type: cell-based, sugarcane; details: BAP present in the culture
Text: General procedures have been previously outlined (International Publication No. WO 2013/096531, incorporated by reference herein). In summary, half-explants were trimmed of excess stalk tissue, leaving behind the proliferating buds areas. Trimmed tissue was placed into a temporary immersion chamber for liquid culture, or back onto solid media. In the case of temporary immersion, the chamber was placed in a growth chamber, or room, with 30 uE/m2/sec of PAR light, and was hooked to tubing connected to pumps to allow standard immersion cycling. Media (MS+3% sucrose+[…]+3 mg/L paclobutrazol) was changed weekly. Harvest occurred 2-20 weeks after initiation, depending on whether the tissue is grown on solid or liquid media, and the overall mass of the regenerable plant tissue (RPT).
The RPT was subdivided into additional growth chambers or plates as needed. Multiple rounds of growth cycles were possible.

[3] = Conditions N, O: 0 weeks, not stored

Influence on the degradation of cellulosic compounds [1]: high influence
Molecule: NC(N)=O [urea]

Molecule: Na silicate
Growth rate and root production in a field test (sugarcane): improves growth rate and root production

Molecule: CC1=CC(=O)CC(C)(C)[C@@]1(O)/C=C/C(C)=C\C(=O)O [ABA, abscisic acid]
Survival (sugarcane plantlet; Condition C: storage 8 weeks, temperature 10, light 5): 0%
Survival (sugarcane plantlet; Condition D: storage 8 weeks, temperature 30, light 0): 0%
Survival (sugarcane plantlet; Condition G: storage 4 weeks, temperature 10, light 0): 0%
Survival (sugarcane plantlet; Condition H: storage 4 weeks, temperature 30, light 200): 50%
Survival (sugarcane plantlet; Condition L: storage 2 weeks, temperature 10, light 5): 0%
Survival (sugarcane plantlet; Condition M: storage 2 weeks, temperature 30, light 0): 0%
Survival (sugarcane plantlet; [3]): 12%

Molecule: c1ccc(CNc2ncnc3nc[nH]c23)cc1 [BAP, 6-Benzylaminopurine]
Root formation [2]: No root formation is detected

Molecule: CC(C)(C)[C@@H](O)[C@@H](Cc1ccc(Cl)cc1)n1cncn1 (racemic) [Paclo, paclobutrazol]
Survival (sugarcane plantlet; Condition A: storage 8 weeks, temperature 10, light 0): 0%
Survival (sugarcane plantlet; Condition B: storage 8 weeks, temperature 30, light 200): 88%
Survival (sugarcane plantlet; Condition E: storage 4 weeks, temperature 10, light 5): 0%
Survival (sugarcane plantlet; Condition F: storage 4 weeks, temperature 30, light 0): 0%
Survival (sugarcane plantlet; Condition J: storage 2 weeks, temperature 10, light 0): 0%
Survival (sugarcane plantlet; Condition K: storage 2 weeks, temperature 30, light 200): 64%
Survival (sugarcane plantlet; [3]): 16%
Survival rate compared between treatments (sugarcane plantlet; storage experiment of Table 3 overall): higher survival rate than the ABA treatment
